Measurements taken from US20240383908A1, “SYNTHESIS AND APPLICATION OF PHOSPHATASE DEGRADER” (HINOVA PHARMACEUTICALS INC., priority 2021, published 2024).

Biological target: T1, SHP2 protein (Homo sapiens, UniProt Q06124)
T1 sequence (Q06124 1-593): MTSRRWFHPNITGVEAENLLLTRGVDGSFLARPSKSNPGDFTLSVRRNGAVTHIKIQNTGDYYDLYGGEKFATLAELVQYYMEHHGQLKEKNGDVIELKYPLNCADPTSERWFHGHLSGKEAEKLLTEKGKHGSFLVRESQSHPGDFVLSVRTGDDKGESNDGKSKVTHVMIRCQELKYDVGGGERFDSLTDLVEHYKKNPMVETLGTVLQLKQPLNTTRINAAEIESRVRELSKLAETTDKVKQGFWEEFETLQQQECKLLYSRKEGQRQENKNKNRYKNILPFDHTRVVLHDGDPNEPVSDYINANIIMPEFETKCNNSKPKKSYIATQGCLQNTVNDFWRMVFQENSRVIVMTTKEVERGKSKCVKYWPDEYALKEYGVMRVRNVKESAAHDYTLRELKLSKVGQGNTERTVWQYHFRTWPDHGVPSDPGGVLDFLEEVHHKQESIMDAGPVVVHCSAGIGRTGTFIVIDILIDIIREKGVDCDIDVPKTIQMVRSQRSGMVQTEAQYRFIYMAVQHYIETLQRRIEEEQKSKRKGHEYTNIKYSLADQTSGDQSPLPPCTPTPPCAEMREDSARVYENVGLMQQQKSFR
Experiment: Degradation activity on SHP2 protein in MIA Paca-2 cells (Western blot, DC50)
Assay type: cell-based
Parameters: endogenous in cells; host or cells: MIA Paca-2 cells
Settings: read-out: Degradation activity for differenct cell lines MIA Paca-2 (DC50)
How it was run: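 Cells were treated 24 h at 37 °C with compound (0.1–100 nM final, 0.1% DMSO). SHP2 was measured by Western blot with GAPDH as loading control, densitometry normalized to DMSO (100%). DC50, the concentration giving 50% degradation, came from a dose-response fit.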

Row | Structure (SMILES) | DC50 [nM]
1 | CC1(N)CCN(c2cnc(Sc3cccc(NC(=O)C4CC45CCC(N4CC=C(c6ccc(C(=O)N7CCN(c8ccc9c(c8)CN(C8CCC(=O)NC8=O)C9=O)CC7)nc6)CC4)CC5)c3)cn2)CC1 (single isomer, unassigned) [Compound 322] | > 1000
2 | CC1(N)CCN(c2cnc(Sc3cccc(NC(=O)c4ncc(N5CCC(N6CCN(c7ccc(C(=O)NCc8ccc9c(c8)CN(C8CCC(=O)NC8=O)C9=O)nn7)CC6)CC5)cn4)c3)cn2)CC1 (centres unmarked) [Compound 449] | < 100
3 | NC1(CO)CCN(c2cnc(Sc3cccc(NC(=O)c4ccc(N5CCC(N6CC=C(c7ccc(C(=O)NCc8ccc9c(c8)CN(C8CCC(=O)NC8=O)C9=O)nc7)CC6)CC5)cc4)c3)cn2)CC1 (centres unmarked) [Compound 336] | < 100
4 | CC1(N)CCN(c2cnc(Sc3cccc(NCc4ccc(N5CCN(c6ccc(C(=O)NCc7ccc8c(c7)C(=O)N(C7CCC(=O)NC7=O)C8)nn6)CC5)c(F)c4)c3)cn2)CC1 (centres unmarked) [Compound 258] | > 1000
5 | CC1(N)CCN(c2cnc(Sc3cccc(NC(=O)C(C)(C)c4ccc(N5CCN(c6ccc(C(=O)NCc7ccc8c(c7)CN(C7CCC(=O)NC7=O)C8=O)nc6)CC5)cc4)c3)cn2)CC1 (centres unmarked) [Compound 331] | > 1000
6 | CC1(N)CCN(c2cnc(Sc3cccc(NC(=O)c4ccc(N5CCC(C(=O)N6CCN(c7ccc8c(c7)CN(C7CCC(=O)NC7=O)C8=O)CC6)CC5)c(F)c4)c3)cn2)CC1 (centres unmarked) [Compound 335] | > 1000
7 | CC1(N)CCN(c2cnc(Sc3cccc(NC(=O)c4ccc(N5CCC(N6CC=C(c7ccc(C(=O)Nc8ccc9c(c8)CN(C8CCC(=O)NC8=O)C9=O)nc7)CC6)CC5)nc4)c3)cn2)CC1 (centres unmarked) [Compound 325] | < 100
8 | Cc1cc(C2=CCN(C3CCN(c4ccc(C(=O)Nc5cccc(Sc6cnc(N7CCC8(CC7)CO[C@@H](C)[C@H]8N)cn6)c5)cc4F)CC3)CC2)cnc1C(=O)NCc1ccc2c(c1)CN(C1CCC(=O)NC1=O)C2=O (some centres unmarked) [Compound 462] | > 1000
9 | CC1(N)CCN(c2cnc(Sc3cccc(NC(=O)c4ccc(-c5ccc(N6CCC7(CC6)CC(C(=O)NCc6ccc8c(c6)CN(C6CCC(=O)NC6=O)C8=O)C7)cc5)cc4)c3)cn2)CC1 (centres unmarked) [Compound 415] | > 1000
10 | C[C@@H]1OCC2(CCN(c3cnc(Sc4cccc(NC(=O)c5ccc(N6CCC(N7CC=C(c8ncc(C(=O)NCc9ccc%10c(c9)CN(C9CCC(=O)NC9=O)C%10=O)cc8F)CC7)CC6)c(F)c5)c4)cn3)CC2)[C@@H]1N (some centres unmarked) [Compound 466] | < 100
11 | CC1(N)CCN(c2cnc(Sc3cccc(NC(=O)C4CC45CCN(c4ccc(CN6CCN(c7ccc8c(c7)CN(C7CCC(=O)NC7=O)C8=O)CC6)cc4F)CC5)c3)cn2)CC1 (centres unmarked) [Compound 272] | > 1000
12 | CC1(N)CCN(c2cnc(Sc3cccc(NC(=O)C4CCC(N5CC=C(c6ccc(C(=O)NCc7ccc8c(c7)CN(C7CCC(=O)NC7=O)C8=O)nc6)CC5)CC4)c3)cn2)CC1 (single isomer, unassigned) [Compound 300] | > 1000
13 | CC1(N)CCN(c2cnc(Sc3cccc(NC(=O)C4CC(N5CCN(c6ccc7c(c6)CN(C6CCC(=O)NC6=O)C7=O)CC5)C4)c3)cn2)CC1 (centres unmarked) [Compound 269] | > 1000
14 | CC1(N)CCN(c2cnc(Sc3cccc(NC(=O)CCN4CC5(CCC(OCCNc6ccc(C(=O)NCc7ccc8c(c7)CN(C7CCC(=O)NC7=O)C8=O)nn6)CC5)C4)c3)cn2)CC1 (centres unmarked) [Compound 214] | > 1000
15 | CC1(N)CCN(c2cnc(Sc3cccc(NC(=O)c4cccc(CN5CCN(c6ccc7c(c6)CN(C6CCC(=O)NC6=O)C7=O)CC5)c4)c3)cn2)CC1 (centres unmarked) [Compound 298] | > 1000
16 | CC1(N)CCN(c2cnc(Sc3cccc(NC(=O)C4CC45CCC(N4CC=C(c6ccc(C(=O)NCc7ccc8c(c7)CN(C7CCC(=O)NC7=O)C8=O)nc6)CC4)CC5)c3)cn2)CC1 (single isomer, unassigned) [Compound 315] | > 1000
17 | CC1(N)CCN(c2cnc(Sc3cccc(NC(=O)c4ccc(C5=CCC(N6CC=C(c7ccnc(C(=O)NCc8ccc9c(c8)CN(C8CCC(=O)NC8=O)C9=O)c7)C6)CC5)c(F)c4)c3)cn2)CC1 (centres unmarked) [Compound 416] | > 1000
18 | CC1(N)CCN(c2cnc(Sc3cccc(NC(=O)c4ccc(C5=CCC(N6CC=C(c7ccc(C(=O)NCc8ccc9c(c8)CN(C8CCC(=O)NC8=O)C9=O)nc7)CC6)CC5)cc4)c3)cn2)CC1 (centres unmarked) [Compound 307] | < 100
19 | Cc1cc(C(=O)NCc2ccc3c(c2)CN(C2CCC(=O)NC2=O)C3=O)ncc1C1=CCN(C2CCN(c3ccc(C(=O)Nc4cccc(Sc5cnc(N6CCC(C)(N)CC6)cn5)c4)cc3F)CC2)CC1 (centres unmarked) [Compound 470] | 100 to 1000
20 | C[C@@H]1OCC2(CCN(c3cnc(Sc4cccc(NC(=O)C5CCC(N6CC7(CCN(c8ccc(C(=O)NCc9ccc%10c(c9)CN(C9CCC(=O)NC9=O)C%10=O)cn8)C7)C6)CC5)c4)cn3)CC2)[C@@H]1N (some centres unmarked) [Compound 489] | > 1000
21 | CC1(N)CCN(c2cnc(Sc3cccc(NC(=O)C4CC(N5CCC(N6CC=C(c7ccc(C(=O)Nc8ccc9c(c8)CN(C8CCC(=O)NC8=O)C9=O)nn7)CC6)CC5)C4)c3)cn2)CC1 (centres unmarked) [Compound 310] | < 100
22 | CC1(N)CCN(c2cnc(Sc3cccc(NC(=O)c4ccc(N5CCC(N6C=C(c7ncc(C(=O)NCc8ccc9c(c8)CN(C8CCC(=O)NC8=O)C9=O)o7)CC6)CC5)c(F)c4)c3)cn2)CC1 (centres unmarked) [Compound 426] | > 1000

The remaining lines, values ahead:

Row | DC50 [nM] | Structure (SMILES)
23 | < 100 | Cc1cc(C(=O)Nc2cccc(Sc3cnc(N4CCC(C)(N)CC4)cn3)c2)ccc1N1CCC(N2CC=C(c3cnc(C(=O)NCc4ccc5c(c4)CN(C4CCC(=O)NC4=O)C5=O)cc3Cl)CC2)CC1 (centres unmarked) [Compound 452]
24 | > 1000 | CC1(N)CCN(c2cnc(Sc3cccc(NC(=O)CCN4CC=C(c5ccc(C(=O)NCc6ccc7c(c6)CN(C6CCC(=O)NC6=O)C7=O)nc5)C(C)(C)C4)c3)cn2)CC1 (centres unmarked) [Compound 274]
25 | > 1000 | C[C@@H]1OCC2(CCN(c3cnc(Sc4cccc(NC(=O)c5ccc(CN6CCN(c7ccc8c(c7)C(=O)N(C7CCC(=O)NC7=O)C8=O)CC6)cc5)c4)cn3)CC2)[C@@H]1N (some centres unmarked) [Compound 287]
26 | > 1000 | C[C@@H]1OCC2(CCN(c3cnc(Sc4cccc(NC(=O)c5ccc(N6CCC(N7CCN(c8ccc9c(c8)CN(C8CCC(=O)NC8=O)C9=O)CC7)CC6)c(F)c5)c4)cn3)CC2)[C@@H]1N (some centres unmarked) [Compound 280]
27 | < 100 | CC1(N)CCN(c2cnc(Sc3cccc(NC(=O)c4ccc(N5CCC(N6CCN(c7ccc(C(=O)NCc8ccc9c(c8)CN(C8CCC(=O)NC8=O)C9=O)nc7)CC6)CC5)nn4)c3)cn2)CC1 (centres unmarked) [Compound 450]
28 | 100 to 1000 | C[C@@H]1OCC2(CCN(c3cnc(Sc4cccc(NC(=O)c5ccc(N6CCC(N7CC=C(c8ccc(C(=O)NCc9ccc%10c(c9)CN(C9CCC(=O)NC9=O)C%10=O)c(Cl)c8)CC7)CC6)c(F)c5)c4)cn3)CC2)[C@@H]1N (some centres unmarked) [Compound 479]
29 | > 1000 | Cc1cc(C(=O)NCc2ccc3c(c2)CN(C2CCC(=O)NC2=O)C3=O)ncc1C1=CCN(C2CCN(c3ccc(C(=O)Nc4cccc(Sc5cnc(N6CCC7(CC6)CO[C@@H](C)[C@H]7N)cn5)c4)cc3F)CC2)CC1 (some centres unmarked) [Compound 458]
30 | > 1000 | C[C@@H]1OCC2(CCN(c3cnc(Sc4cccc(NC(=O)C5CC56CCN(c5ccc(CN7CCN(c8ccc9c(c8)CN(C8CCC(=O)NC8=O)C9=O)CC7)cc5F)CC6)c4)cn3)CC2)[C@@H]1N (some centres unmarked) [Compound 273]
31 | 100 to 1000 | C[C@@H]1OCC2(CCN(c3cnc(Sc4cccc(NC(=O)c5ccc(N6CCC(N7CC=C(C8CCC(C(=O)NCc9ccc%10c(c9)CN(C9CCC(=O)NC9=O)C%10=O)CC8)CC7)CC6)c(F)c5)c4)cn3)CC2)[C@@H]1N (some centres unmarked) [Compound 512]
32 | < 100 | CC1(N)CCN(c2cnc(Sc3cccc(NC(=O)c4ccc(N5CCC(N6CCC(c7ccc(C(=O)NCc8ccc9c(c8)CN(C8CCC(=O)NC8=O)C9=O)nc7)CC6)CC5)cc4)c3)cn2)CC1 (centres unmarked) [Compound 372]
33 | < 100 | C[C@@H]1OCC2(CCN(c3cnc(Sc4cccc(NC(=O)c5ccc(N6CCC(N7CC=C(c8ccc(C(=O)NCc9ccc%10c(c9)CN(C9CCC(=O)NC9=O)C%10=O)nn8)CC7)C6)cc5)c4)cn3)CC2)[C@@H]1N (some centres unmarked) [Compound 520]
34 | < 100 | CC1(N)CCN(c2cnc(Sc3cccc(NC(=O)c4ccc(N5CCC(N6CCN(c7nnc(C(=O)NCc8ccc9c(c8)CN(C8CCC(=O)NC8=O)C9=O)cc7Cl)CC6)CC5)c(F)c4)c3)cn2)CC1 (centres unmarked) [Compound 493]
35 | > 1000 | C[C@@H]1OCC2(CCN(c3cnc(Sc4cccc(NC(=O)c5ccc(CN6CCN(c7ccc8c(c7)CN(C7CCC(=O)NC7=O)C8=O)CC6)cc5)c4)cn3)CC2)[C@@H]1N (some centres unmarked) [Compound 285]
36 | > 1000 | C[C@@H]1OCC2(CCN(c3cnc(Sc4cccc(NCc5ccc(CN6CCN(c7ccc8c(c7)CN(C7CCC(=O)NC7=O)C8=O)CC6)cc5)c4)cn3)CC2)[C@@H]1N (some centres unmarked) [Compound 255]
37 | < 100 | CC1(N)CCN(c2cnc(Sc3cccc(NC(=O)c4ccc(N5CCC(N6CCN(c7nnc(C(=O)NCc8ccc9c(c8)CN(C8CCC(=O)NC8=O)C9=O)cc7Cl)CC6)CC5)nc4)c3)cn2)CC1 (centres unmarked) [Compound 492]
38 | > 1000 | Cc1cc(C(=O)Nc2cccc(Sc3cnc(N4CCC(C)(N)CC4)cn3)c2)ccc1N1CCC(N2CC=C(c3ccc(C(=O)NCc4ccc5c(c4)CN(C4CCC(=O)NC4=O)C5=O)nc3Cl)CC2)CC1 (centres unmarked) [Compound 441]
